Results taken from US7074789B2, “Kinase inhibitors” (Amgen Inc., priority 1999, dated 2006).

What was measured:
Type in all cases: biochemical
Lck = biological target: T1, Lck (Homo sapiens, UniProt P06239); test: Kinase inhibition assay (33P transfer), Lck; conditions: Table 3, class symbols; read-out: Lck-1
T1 construct: Kinases are expressed as either kinase domains or full length constructs; made in house
In short: (§1)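 Recombinant kinase-domain or full-length fusion proteins (GST or His tag) served as enzyme. Substrate poly(Glu,Tyr) 4:1 or poly(Arg,Ser) 3:1 was bound to the plate; transferred 33P was read by liquid scintillation following acid washing.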

Zap-70 = biological target: T2, Zap-70 (Homo sapiens, UniProt P43403); test: Kinase inhibition assay (33P transfer), Zap-70; conditions: Table 3, class symbols; read-out: Zap-1
T2 construct: Kinases are expressed as either kinase domains or full length constructs; made in house
T2 sequence (P43403 1-619): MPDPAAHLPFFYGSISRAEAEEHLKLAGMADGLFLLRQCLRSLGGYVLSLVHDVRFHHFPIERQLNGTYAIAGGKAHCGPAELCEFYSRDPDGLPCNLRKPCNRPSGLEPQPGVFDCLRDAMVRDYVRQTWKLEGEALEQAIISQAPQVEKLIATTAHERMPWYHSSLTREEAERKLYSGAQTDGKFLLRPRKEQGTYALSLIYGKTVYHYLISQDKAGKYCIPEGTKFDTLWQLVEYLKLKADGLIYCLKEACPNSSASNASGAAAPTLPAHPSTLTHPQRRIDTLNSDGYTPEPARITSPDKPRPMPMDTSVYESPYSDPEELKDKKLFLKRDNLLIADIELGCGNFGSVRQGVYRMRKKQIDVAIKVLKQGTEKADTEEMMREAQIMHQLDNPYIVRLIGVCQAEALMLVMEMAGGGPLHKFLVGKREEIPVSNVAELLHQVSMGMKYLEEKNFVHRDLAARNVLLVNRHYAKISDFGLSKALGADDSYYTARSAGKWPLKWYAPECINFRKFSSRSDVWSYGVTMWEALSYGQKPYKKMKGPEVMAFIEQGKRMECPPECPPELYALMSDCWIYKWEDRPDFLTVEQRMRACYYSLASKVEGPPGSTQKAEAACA
In short: as §1

Itk = biological target: T3, Itk (Homo sapiens, UniProt Q08881); test: Kinase inhibition assay (33P transfer), Itk; conditions: Table 3, class symbols; read-out: Itk-1
T3 construct: Kinases are expressed as either kinase domains or full length constructs; made in house
T3 sequence (Q08881 1-620): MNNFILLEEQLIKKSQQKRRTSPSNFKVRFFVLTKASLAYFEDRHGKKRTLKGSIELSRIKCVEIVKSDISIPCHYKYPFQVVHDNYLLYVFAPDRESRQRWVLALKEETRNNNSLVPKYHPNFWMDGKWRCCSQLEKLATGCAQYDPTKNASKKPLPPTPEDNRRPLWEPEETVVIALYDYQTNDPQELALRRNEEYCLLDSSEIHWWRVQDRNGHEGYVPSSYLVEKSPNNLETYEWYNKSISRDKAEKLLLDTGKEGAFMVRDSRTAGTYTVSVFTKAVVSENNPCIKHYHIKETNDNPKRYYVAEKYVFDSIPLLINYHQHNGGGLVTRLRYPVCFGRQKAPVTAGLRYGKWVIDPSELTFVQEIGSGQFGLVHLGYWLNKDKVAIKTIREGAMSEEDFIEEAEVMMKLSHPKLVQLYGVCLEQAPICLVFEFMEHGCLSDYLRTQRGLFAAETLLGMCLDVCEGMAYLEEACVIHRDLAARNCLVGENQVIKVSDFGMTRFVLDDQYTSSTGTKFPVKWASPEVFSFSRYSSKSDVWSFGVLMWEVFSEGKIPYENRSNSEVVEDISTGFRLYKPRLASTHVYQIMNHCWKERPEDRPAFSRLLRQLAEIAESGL
In short: (§2)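 Using immobilised substrate copolymers (poly(Glu,Tyr) 4:1; poly(Arg,Ser) 3:1) and [33P]ATP, purified fusion kinases were allowed to react; plates were then rinsed in 0.5% phosphoric acid and counted in a scintillation detector. Half-maximal inhibition of label transfer defines IC50.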

EGFR = biological target: T4, EGFR (Homo sapiens, UniProt P00533); test: Kinase inhibition assay (33P transfer), EGFR; conditions: Table 2, class symbols A-E; read-out: EGFR-1
T4 construct: Kinases are expressed as either kinase domains or full length constructs; made in house
In short: as §2

ErbB2 = biological target: T5, ErbB2 (Homo sapiens, UniProt P04626); test: Kinase inhibition assay (33P transfer), ErbB2; conditions: read-out: ErbB2-2
T5 construct: Kinases are expressed as either kinase domains or full length constructs; made in house
In short: as §2

Kdr = biological target: T6, Kdr (Homo sapiens, UniProt P35968); test: Kinase inhibition assay (33P transfer), Kdr; conditions: Table 3, class symbols; read-out: KDR-1
T6 construct: Kinases are expressed as either kinase domains or full length constructs; made in house
In short: as §1

c-Met = biological target: T7, c-Met (Homo sapiens, UniProt P08581); test: Kinase inhibition assay (33P transfer), c-Met; conditions: Table 2, class symbols A-E; read-out: Met-1
T7 construct: Kinases are expressed as either kinase domains or full length constructs; made in house
In short: as §2

AKT = biological target: T8, AKT (Homo sapiens, UniProt Q9Y243); test: Kinase inhibition assay (33P transfer), AKT; conditions: Table 2, class symbols A-E; read-out: AKT3-1
T8 construct: Kinases are expressed as either kinase domains or full length constructs; made in house
In short: as §1

IGFR-1 = biological target: T9, IGFR-1 (Homo sapiens, UniProt P08069); test: Kinase inhibition assay (33P transfer), IGFR-1; conditions: Table 2, class symbols A-E
T9 construct: Kinases are expressed as either kinase domains or full length constructs; made in house

T6 sequence (P35968 20-1356, species assumed): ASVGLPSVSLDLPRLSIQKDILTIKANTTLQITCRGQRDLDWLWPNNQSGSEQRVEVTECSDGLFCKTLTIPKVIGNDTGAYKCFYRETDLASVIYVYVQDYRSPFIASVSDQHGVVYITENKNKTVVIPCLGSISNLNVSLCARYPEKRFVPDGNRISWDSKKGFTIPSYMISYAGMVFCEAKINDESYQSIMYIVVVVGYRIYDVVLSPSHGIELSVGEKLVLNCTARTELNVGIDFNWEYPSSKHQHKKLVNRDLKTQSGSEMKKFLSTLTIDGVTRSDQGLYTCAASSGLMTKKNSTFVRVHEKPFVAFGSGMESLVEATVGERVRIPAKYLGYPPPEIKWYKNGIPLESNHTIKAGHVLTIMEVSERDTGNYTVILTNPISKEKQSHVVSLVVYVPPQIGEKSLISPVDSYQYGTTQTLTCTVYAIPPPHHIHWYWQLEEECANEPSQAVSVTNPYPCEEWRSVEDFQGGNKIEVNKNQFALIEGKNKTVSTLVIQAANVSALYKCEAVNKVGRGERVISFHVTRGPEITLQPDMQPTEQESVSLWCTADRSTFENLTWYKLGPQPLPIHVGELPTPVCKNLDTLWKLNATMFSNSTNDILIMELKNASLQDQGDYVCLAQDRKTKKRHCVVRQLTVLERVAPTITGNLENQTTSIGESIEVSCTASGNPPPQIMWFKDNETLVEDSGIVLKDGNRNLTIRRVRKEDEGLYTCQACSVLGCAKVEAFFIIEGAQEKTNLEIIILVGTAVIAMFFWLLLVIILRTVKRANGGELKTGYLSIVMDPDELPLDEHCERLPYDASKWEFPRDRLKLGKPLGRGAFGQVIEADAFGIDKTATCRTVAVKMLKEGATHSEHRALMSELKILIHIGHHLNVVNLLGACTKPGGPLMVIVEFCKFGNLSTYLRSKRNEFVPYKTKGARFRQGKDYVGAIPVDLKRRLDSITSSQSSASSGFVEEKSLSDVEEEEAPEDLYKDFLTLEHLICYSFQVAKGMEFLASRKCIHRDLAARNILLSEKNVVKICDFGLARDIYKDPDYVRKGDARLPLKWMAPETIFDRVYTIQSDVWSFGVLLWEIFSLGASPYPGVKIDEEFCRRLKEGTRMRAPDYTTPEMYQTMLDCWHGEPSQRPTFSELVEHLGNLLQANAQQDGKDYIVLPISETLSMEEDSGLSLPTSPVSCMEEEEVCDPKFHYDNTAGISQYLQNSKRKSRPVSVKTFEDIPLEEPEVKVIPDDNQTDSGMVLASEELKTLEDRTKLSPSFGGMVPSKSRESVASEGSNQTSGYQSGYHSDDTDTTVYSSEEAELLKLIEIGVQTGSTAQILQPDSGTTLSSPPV
T4 sequence (P00533 25-1210, species assumed): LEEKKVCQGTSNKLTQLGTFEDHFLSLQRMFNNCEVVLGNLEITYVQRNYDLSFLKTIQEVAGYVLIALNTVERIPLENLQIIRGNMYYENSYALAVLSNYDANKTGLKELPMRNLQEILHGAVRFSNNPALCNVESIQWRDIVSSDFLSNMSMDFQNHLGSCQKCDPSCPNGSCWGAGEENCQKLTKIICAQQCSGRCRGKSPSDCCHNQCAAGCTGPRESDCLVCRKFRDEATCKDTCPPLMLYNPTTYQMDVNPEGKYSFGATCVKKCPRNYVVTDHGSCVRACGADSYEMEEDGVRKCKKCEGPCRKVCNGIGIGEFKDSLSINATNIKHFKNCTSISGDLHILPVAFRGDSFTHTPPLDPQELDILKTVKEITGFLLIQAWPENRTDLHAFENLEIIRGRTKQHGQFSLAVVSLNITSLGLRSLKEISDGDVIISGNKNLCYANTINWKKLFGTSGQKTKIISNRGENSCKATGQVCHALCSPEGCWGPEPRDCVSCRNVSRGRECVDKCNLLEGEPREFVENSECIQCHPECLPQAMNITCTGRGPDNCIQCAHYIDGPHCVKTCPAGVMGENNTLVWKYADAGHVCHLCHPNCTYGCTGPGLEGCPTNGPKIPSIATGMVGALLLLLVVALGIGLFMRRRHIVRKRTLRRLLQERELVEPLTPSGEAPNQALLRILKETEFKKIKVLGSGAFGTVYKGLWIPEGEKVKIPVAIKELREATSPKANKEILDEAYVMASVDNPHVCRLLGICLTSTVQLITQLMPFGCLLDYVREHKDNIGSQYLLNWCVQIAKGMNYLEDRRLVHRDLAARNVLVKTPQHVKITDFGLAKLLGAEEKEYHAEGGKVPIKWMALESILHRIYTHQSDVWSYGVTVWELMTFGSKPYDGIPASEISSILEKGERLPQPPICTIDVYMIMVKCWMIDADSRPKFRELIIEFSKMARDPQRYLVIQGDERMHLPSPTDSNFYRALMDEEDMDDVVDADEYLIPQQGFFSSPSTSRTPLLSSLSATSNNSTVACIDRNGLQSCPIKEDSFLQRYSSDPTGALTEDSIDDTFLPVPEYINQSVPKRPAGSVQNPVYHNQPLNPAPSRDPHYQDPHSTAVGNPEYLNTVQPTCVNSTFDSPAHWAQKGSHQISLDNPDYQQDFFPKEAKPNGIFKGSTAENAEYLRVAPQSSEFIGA
T7 sequence (P08581 25-1390): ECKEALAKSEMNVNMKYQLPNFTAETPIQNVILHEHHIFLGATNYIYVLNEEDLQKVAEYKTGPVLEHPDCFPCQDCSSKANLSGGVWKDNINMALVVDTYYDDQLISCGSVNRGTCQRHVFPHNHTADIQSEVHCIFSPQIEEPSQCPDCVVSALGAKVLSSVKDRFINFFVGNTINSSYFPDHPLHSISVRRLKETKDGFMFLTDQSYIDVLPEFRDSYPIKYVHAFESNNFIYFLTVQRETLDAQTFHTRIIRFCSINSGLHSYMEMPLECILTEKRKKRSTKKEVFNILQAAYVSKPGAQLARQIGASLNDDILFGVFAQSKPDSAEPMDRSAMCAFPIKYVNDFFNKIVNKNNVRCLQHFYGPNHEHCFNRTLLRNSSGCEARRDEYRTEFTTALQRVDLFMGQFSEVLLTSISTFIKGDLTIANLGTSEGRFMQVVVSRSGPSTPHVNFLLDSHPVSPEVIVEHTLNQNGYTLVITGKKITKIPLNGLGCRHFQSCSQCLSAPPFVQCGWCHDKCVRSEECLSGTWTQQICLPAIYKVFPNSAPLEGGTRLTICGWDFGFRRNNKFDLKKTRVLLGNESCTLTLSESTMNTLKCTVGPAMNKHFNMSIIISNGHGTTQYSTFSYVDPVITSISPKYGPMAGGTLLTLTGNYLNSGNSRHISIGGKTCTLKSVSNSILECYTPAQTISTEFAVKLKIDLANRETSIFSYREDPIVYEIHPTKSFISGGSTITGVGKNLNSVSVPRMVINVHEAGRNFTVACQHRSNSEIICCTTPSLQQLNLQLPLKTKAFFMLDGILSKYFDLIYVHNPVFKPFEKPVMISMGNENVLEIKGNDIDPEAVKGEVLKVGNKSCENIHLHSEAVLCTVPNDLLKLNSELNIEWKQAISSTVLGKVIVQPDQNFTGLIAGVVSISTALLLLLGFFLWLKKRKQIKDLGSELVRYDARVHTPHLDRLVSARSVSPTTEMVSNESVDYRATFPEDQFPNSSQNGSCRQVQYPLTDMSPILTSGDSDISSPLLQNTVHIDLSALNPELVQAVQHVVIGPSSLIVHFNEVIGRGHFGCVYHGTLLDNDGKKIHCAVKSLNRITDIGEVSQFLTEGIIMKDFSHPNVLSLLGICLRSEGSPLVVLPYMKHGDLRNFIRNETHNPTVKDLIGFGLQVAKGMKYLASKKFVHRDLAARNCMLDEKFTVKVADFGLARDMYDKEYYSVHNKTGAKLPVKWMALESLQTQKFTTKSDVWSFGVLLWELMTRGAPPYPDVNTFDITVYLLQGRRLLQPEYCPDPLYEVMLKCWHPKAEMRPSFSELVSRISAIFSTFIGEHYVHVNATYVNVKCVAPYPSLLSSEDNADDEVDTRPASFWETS
T1 sequence (P06239 whole entry, species assumed, the tested form may be a part): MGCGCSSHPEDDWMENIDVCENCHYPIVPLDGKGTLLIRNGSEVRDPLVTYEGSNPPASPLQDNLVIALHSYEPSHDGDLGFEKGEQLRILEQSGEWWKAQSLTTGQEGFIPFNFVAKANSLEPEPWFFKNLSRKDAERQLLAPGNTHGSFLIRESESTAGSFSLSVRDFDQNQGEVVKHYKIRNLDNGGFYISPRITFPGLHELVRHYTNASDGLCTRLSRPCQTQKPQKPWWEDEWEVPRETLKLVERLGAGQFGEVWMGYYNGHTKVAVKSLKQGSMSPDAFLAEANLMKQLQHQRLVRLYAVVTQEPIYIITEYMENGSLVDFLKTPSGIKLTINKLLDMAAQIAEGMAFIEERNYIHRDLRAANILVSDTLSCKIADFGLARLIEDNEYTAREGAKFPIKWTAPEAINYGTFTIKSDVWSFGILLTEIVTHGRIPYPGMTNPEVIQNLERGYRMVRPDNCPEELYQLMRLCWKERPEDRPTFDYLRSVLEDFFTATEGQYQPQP
T8 sequence (Q9Y243 whole entry, the tested form may be a part): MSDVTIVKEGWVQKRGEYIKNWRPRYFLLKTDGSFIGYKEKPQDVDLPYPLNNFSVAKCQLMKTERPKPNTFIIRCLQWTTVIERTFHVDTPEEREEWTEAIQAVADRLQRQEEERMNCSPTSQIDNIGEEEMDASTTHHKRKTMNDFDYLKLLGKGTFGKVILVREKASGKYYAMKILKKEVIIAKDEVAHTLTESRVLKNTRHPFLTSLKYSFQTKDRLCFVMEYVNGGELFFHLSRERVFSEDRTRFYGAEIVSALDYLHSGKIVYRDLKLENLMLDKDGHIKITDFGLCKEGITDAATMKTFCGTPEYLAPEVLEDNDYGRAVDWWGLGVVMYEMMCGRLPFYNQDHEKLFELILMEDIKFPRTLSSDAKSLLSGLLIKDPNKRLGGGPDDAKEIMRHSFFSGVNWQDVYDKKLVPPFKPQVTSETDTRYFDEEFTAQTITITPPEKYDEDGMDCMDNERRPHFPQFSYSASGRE

COc1ccc(N(C)c2ncnc(Nc3ccc(OC)c(OC)c3)n2)cc1 [Compound 863]
IC50 (Lck): 1.09 to 6.53 µM | IC50 (Zap-70): > 12.2 µM | IC50 (Itk): > 12.2 µM | IC50 (EGFR): < 1.09 µM | IC50 (ErbB2): 6.53 to 9.53 µM | IC50 (Kdr): 1.09 to 6.53 µM | IC50 (c-Met): 1.09 to 6.53 µM | IC50 (AKT): > 12.2 µM | IC50 (IGFR-1): > 12.2 µM

COc1ccc(Nc2ncnc(N(C)c3ccccc3Cl)n2)cc1OC [Compound 865]
IC50 (Lck): 1.08 to 6.45 µM | IC50 (Zap-70): > 12.1 µM | IC50 (Itk): > 12.1 µM | IC50 (EGFR): < 1.08 µM | IC50 (ErbB2): 1.08 to 6.45 µM | IC50 (Kdr): 6.45 to 9.41 µM | IC50 (c-Met): 1.08 to 6.45 µM | IC50 (AKT): > 12.1 µM | IC50 (IGFR-1): > 12.1 µM

c1ccc(Cn2ncc3cc(Nc4ncnc(Nc5cccc(Cn6ccnn6)c5)n4)ccc32)cc1 [Compound 676]
IC50 (Lck): 0.843 to 5.06 µM | IC50 (Zap-70): > 9.48 µM | IC50 (Itk): 0.843 to 5.06 µM | IC50 (EGFR): < 0.843 µM | IC50 (ErbB2): < 0.843 µM | IC50 (Kdr): 0.843 to 5.06 µM | IC50 (c-Met): 0.843 to 5.06 µM | IC50 (AKT): 5.06 to 7.38 µM | IC50 (IGFR-1): 0.843 to 5.06 µM

COc1cc(Nc2ncnc(-c3cccnc3N[C@@H](C)c3ccccc3)n2)cc(OC)c1OC [Compound 1111]
IC50 (Lck): < 0.872 µM | IC50 (Zap-70): > 9.81 µM | IC50 (Itk): > 9.81 µM | IC50 (EGFR): 0.872 to 5.23 µM | IC50 (ErbB2): 5.23 to 7.63 µM | IC50 (Kdr): < 0.872 µM | IC50 (c-Met): > 9.81 µM | IC50 (AKT): > 9.81 µM | IC50 (IGFR-1): > 9.81 µM

Clc1cccc(Nc2ncnc(Nc3ccc4[nH]ncc4c3)n2)c1 [Compound 134]
IC50 (Lck): 1.18 to 7.11 µM | IC50 (Zap-70): 1.18 to 7.11 µM | IC50 (Itk): < 1.18 µM | IC50 (EGFR): < 1.18 µM | IC50 (ErbB2): 1.18 to 7.11 µM | IC50 (Kdr): < 1.18 µM | IC50 (c-Met): < 1.18 µM | IC50 (AKT): 1.18 to 7.11 µM | IC50 (IGFR-1): < 1.18 µM

Cc1ccc2c(c1)CCCN2c1ncnc(Nc2c(C)ccc3ccccc23)n1 [Compound 854]
IC50 (Lck): > 11.8 µM | IC50 (Zap-70): > 11.8 µM | IC50 (Itk): > 11.8 µM | IC50 (EGFR): 1.05 to 6.29 µM | IC50 (Kdr): > 11.8 µM | IC50 (c-Met): > 11.8 µM | IC50 (AKT): > 11.8 µM | IC50 (IGFR-1): > 11.8 µM

OCc1cccc(Nc2ncnc(-c3cccnc3Nc3ccccc3)n2)c1 [Compound 1115]
IC50 (Lck): 1.08 to 6.48 µM | IC50 (Zap-70): > 12.1 µM | IC50 (Itk): > 12.1 µM | IC50 (EGFR): 1.08 to 6.48 µM | IC50 (Kdr): < 1.08 µM | IC50 (c-Met): 1.08 to 6.48 µM | IC50 (AKT): > 12.1 µM | IC50 (IGFR-1): > 12.1 µM

c1ccc(Nc2ncccc2-c2ncnc(Nc3ccc4[nH]ncc4c3)n2)cc1 [Compound 1117]
IC50 (Lck): > 11.8 µM | IC50 (Zap-70): > 11.8 µM | IC50 (Itk): > 11.8 µM | IC50 (EGFR): 9.2 to 11.8 µM | IC50 (Kdr): < 1.05 µM | IC50 (c-Met): 1.05 to 6.31 µM | IC50 (AKT): > 11.8 µM | IC50 (IGFR-1): > 11.8 µM

CC(C)Nc1ncccc1-c1ncnc(Nc2ccc3[nH]ncc3c2)n1 [Compound 1116]
IC50 (Lck): 1.15 to 6.93 µM | IC50 (Zap-70): > 13 µM | IC50 (Itk): > 13 µM | IC50 (EGFR): 1.15 to 6.93 µM | IC50 (Kdr): 6.93 to 10.1 µM | IC50 (c-Met): 1.15 to 6.93 µM | IC50 (AKT): 10.1 to 13 µM | IC50 (IGFR-1): 1.15 to 6.93 µM

COc1ccc2[nH]cc(CCNc3ncnc(Nc4ccc(OC)c(OC)c4)n3)c2c1 [Compound 855]
IC50 (Lck): > 10.7 µM | IC50 (Zap-70): > 10.7 µM | IC50 (Itk): > 10.7 µM | IC50 (EGFR): > 10.7 µM | IC50 (Kdr): > 10.7 µM | IC50 (c-Met): > 10.7 µM | IC50 (AKT): > 10.7 µM | IC50 (IGFR-1): > 10.7 µM

CC(C)Nc1ncccc1-c1ncnc(Nc2cccc(CO)c2)n1 [Compound 1114]
IC50 (Lck): 1.19 to 7.13 µM | IC50 (Zap-70): 10.4 to 13.4 µM | IC50 (Itk): 10.4 to 13.4 µM | IC50 (EGFR): 10.4 to 13.4 µM | IC50 (Kdr): 1.19 to 7.13 µM | IC50 (c-Met): 10.4 to 13.4 µM | IC50 (AKT): > 13.4 µM | IC50 (IGFR-1): > 13.4 µM
